Read-outs that look alike come from different tables or passages of the source.
Tests used:
[1] = target: HDAC1 (Homo sapiens, UniProt Q13547); assay: HDAC enzyme activity in vitro; assay type: biochemical
[2] = target: HDAC8 (Homo sapiens, UniProt Q9BY41); assay: HDAC enzyme activity in vitro; assay type: biochemical
[3] = system: class IIb HDAC substrate α-tubulin in SUDHL-6, Daudi, Raji, Ramos, RPMI-8226; assay: Cellular acetylation of α-tubulin; assay type: cell-based, human
From the text: The results of these cell experiments were consistent with the in vitro enzyme activity assay results.

[4] = system: Ramos-luc; assay: Luciferase substrate viability assay; assay type: cell-based, human
[5] = Safety pharmacology, ECG and blood pressure; assay type: in vivo, Beagle dogs; settings: 3.6 mg/kg i.v.
Method: In the 1.2 and 3.6 mg/kg groups, transient increases in heart rate were observed, and in the 3.6 mg/kg group, a transient and reversible prolongation of QT interval (9.6%) was also noted. Additionally, there were no significant effects observed on other qualitative and quantitative ECG parameters or blood pressure in the dogs. […] In the 90 mg/kg group, reduced locomotor activity and decreased standing frequency were also observed, but these effects returned to baseline after 24 hours. No significant effects were noted on other neurological behaviors in rats, and no impacts on the respiratory system were observed.

[6] = system: CHL cells; assay: In vitro chromosomal aberration test; assay type: cell-based; settings: 30–1000 µg/mL 4 h ±S9; 3.75–30 µg/mL 24 h
Method: This experiment employed two methods: one without the S9 metabolic activation system and one with the S9 metabolic activation system. The method without the S9 metabolic activation system utilized two exposure times of 4 hours and 24 hours, while the method with the S9 metabolic activation system used a 4-hour exposure time. The test was conducted using a 2% dosing volume ratio. Under the 4-hour exposure conditions, the final concentrations of Purinostat Mesylate were set at 30, 100, 300, and 1000 µg/mL; under the 24-hour exposure conditions, the final concentrations were set at 3.75, 7.5, 15, and 30 µg/mL. Additionally, a solvent control group (DMSO) and a positive control group (administering the appropriate positive agent) were included. After the culture period for each concentration group, cells were collected and prepared for microscopy. After Giemsa staining, 1000 cells were observed under a microscope to record the number of cells in the metaphase stage and calculate the mitotic index inhibition rate for each group. For chromosome aberration assessment, 200 metaphase cells were observed, and the chromosome aberration rate was calculated for each group.

[7] = Fertility, embryo and fetal developmental toxicity test; parameters: species or system SD rats; settings: SD, rat, in vivo, intravenous
Method: Male SD rats were administered intravenous injections of Purinostat Mesylate at doses of 3, 10, and 20 mg/kg every two days from 4 weeks prior to mating until the end of mating. Female SD rats received the same treatment from 2 weeks prior to mating until day 7 of pregnancy. The no observed adverse effect level (NOAEL) for males was less than 3 mg/kg, while for females it was 20 mg/kg. The NOAEL for reproductive toxicity in both male and female rats was 3 mg/kg, and the NOAEL for early embryonic development was less than 3 mg/kg.

[8] = Plasma protein binding, equilibrium dialysis; assay type: in vitro ADME; settings: read-out: plasma protein binding rate (converted)
Method: The plasma protein binding rate of Purinostat Mesylate was measured using equilibrium dialysis in Sprague-Dawley rats, Beagle dogs, crab-eating monkeys, and human plasma.

Chain of HDAC1 (Q13547 whole entry): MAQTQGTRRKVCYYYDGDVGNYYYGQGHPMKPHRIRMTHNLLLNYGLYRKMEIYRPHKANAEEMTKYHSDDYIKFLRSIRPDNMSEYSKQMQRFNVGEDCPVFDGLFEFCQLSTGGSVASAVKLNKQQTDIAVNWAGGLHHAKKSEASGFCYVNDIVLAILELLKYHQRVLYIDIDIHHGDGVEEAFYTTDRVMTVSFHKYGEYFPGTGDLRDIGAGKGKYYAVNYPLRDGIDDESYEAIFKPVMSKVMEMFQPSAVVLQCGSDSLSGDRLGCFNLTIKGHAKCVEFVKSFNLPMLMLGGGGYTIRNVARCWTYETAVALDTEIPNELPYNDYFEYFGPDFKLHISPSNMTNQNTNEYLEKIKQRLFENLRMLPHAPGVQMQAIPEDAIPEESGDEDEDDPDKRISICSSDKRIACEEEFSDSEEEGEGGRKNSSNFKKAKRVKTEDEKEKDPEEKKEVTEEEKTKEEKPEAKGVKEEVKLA
Chain of HDAC8 (Q9BY41 whole entry): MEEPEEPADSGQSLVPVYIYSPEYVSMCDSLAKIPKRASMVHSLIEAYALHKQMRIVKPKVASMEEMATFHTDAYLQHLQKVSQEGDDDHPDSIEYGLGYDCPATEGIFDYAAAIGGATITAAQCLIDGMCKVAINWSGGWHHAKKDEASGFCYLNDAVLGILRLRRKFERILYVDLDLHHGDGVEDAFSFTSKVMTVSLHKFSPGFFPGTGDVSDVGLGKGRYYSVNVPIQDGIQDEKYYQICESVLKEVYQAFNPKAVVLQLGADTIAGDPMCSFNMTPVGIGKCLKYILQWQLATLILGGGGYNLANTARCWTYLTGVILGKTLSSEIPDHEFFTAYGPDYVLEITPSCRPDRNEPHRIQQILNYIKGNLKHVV

CN(Cc1nc2c(N3CCOCC3)nc(-c3ccc(N)cc3)nc2n1C)c1ncc(C(=O)NO)cn1.CS(=O)(=O)O [PM, 2-(((2-(4-Aminophenyl)-9-methyl-6-(4-morpholinyl)-9H-purine-8-yl)methyl)methylamino)-N-hydroxy-5-pyrimidine-carboxamide Mesylate]
IC50 [1]: 0.81 nM
IC50 [2]: 3.8 nM
concentration inducing increased acetylation of α-tubulin [3]: 3 to 10 nM
time until effect detectable [4]: 24 h
prolongation of QT interval, transient and reversible [5]: 9.6%
chromosomal aberration test result [6]: negative
NOAEL [7]: < 3 mg/kg
NOAEL ([7]; both sexes): 3 mg/kg
NOAEL ([7]; female): 20 mg/kg
NOAEL ([7]; male): < 3 mg/kg
fraction unbound at 0.2 µM ([8]; Beagle, dog): 0.169
fraction unbound at 2 µM ([8]; Beagle, dog): 0.164
fraction unbound at 10 µM ([8]; Beagle, dog): 0.167
fraction unbound at 0.2 µM ([8]; Sprague-Dawley, rat): 0.057
fraction unbound at 2 µM ([8]; Sprague-Dawley, rat): 0.045
fraction unbound at 10 µM ([8]; Sprague-Dawley, rat): 0.045
fraction unbound at 0.2 µM ([8]; human): 0.097
fraction unbound at 2 µM ([8]; human): 0.1
fraction unbound at 10 µM ([8]; human): 0.096
fraction unbound at 0.2 µM ([8]; monkey): 0.216
fraction unbound at 2 µM ([8]; monkey): 0.205
fraction unbound at 10 µM ([8]; monkey): 0.21

Source: article PMC12198407, “Preclinical and first-in-human of purinostat mesylate, a novel selective HDAC I/IIb inhibitor, in relapsed/refractory multiple myeloma and lymphoma” (Signal Transduction and Targeted Therapy, 2025)
